This note sets out measurements from patent publication US8148404B2, “Modulators of CB1 receptors” (7TM Pharma A/S, priority 2006, dated 2012).

The target in the assay is T1, human CB1 receptor (Homo sapiens, UniProt P21554).
T1 construct: expressed in transfected cells; membranes used
Kind of assay: Cannabinoid Receptor-1 functional assay: inhibition of CP55940-induced [35S]GTPγS binding to membranes of CHO-K1 cells expressing human CB1. Type of assay: biochemical. The following applies: 3 nM CP55940, [35S]GTPγS SPA, hCB1 membranes; read-out: IC50 value for antagonizing a CB1 receptor agonist. In short, it runs like this:
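Membranes (5 μg/well) from CHO-K1 cells stably expressing human CB1 incubated 1 hr at room temperature with 1 nM [35S]GTPγS, 3 nM CP55940 and test compound in HEPES pH 7.5 buffer with 1 μM GDP, saponin. Bound label read by SPA after 30 min with beads; IC50 by non-linear regression.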
(GTPγS is a poorly hydrolysed GTP analogue; its binding reports G protein activation.)

T1 sequence (P21554 whole entry): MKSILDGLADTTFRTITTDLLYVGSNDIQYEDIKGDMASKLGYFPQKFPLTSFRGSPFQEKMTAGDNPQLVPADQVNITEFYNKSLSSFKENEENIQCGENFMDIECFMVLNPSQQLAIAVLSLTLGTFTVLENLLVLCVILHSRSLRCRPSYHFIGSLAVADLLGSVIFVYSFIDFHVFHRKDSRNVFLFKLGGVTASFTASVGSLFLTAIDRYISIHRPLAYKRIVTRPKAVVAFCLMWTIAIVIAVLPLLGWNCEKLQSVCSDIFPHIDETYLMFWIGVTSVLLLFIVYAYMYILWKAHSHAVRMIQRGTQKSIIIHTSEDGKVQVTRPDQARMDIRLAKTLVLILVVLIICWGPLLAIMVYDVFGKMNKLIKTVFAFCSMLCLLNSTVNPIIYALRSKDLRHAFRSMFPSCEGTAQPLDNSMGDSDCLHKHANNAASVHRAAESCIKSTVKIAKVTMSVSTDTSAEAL

One may read the IC50 as the point on the concentration scale where inhibition reaches its midpoint. Regarding `O=C(O)Cc1c(C(=O)N2CCC(c3ccc(C(F)(F)F)cc3)C2)nn(-c2ccccc2Cl)c1-c1ccc(Cl)cc1` (centres unmarked) [[1.39], {1-(2-Chloro-phenyl)-5-(4-chloro-phenyl)-3-[3-(4-trifluoromethyl-phenyl)-pyrrolidine-1-carbonyl]-1H-pyrazol-4-yl}-acetic acid], the IC50 was less than 300 nM.

On to `O=C(O)Cc1c(C(=O)N2CCC(O)(c3ccc(Cl)cc3)CC2)nn(-c2ccccc2Cl)c1-c1ccc(Cl)cc1` [[1.12], {1-(2-Chloro-phenyl)-5-(4-chloro-phenyl)-3-[4-(4-chloro-phenyl)-4-hydroxy-piperidine-1carbonyl]-1H-pyrazol-4-yl}-acetic acid], for which the IC50 was less than 300 nM.

As for `COc1cccc(C2CCN(C(=O)c3nn(-c4ccccc4Cl)c(-c4ccc(Cl)cc4)c3CC(=O)O)CC2)c1` [[1.37], {1-(2-Chloro-phenyl)-5-(4-chloro-phenyl)-3-[4-(3-methoxy-phenyl)-piperidine-1-carbonyl]-1H-pyrazol-4-yl}-acetic acid], the IC50 is less than 300 nM.

Consider `O=C(O)Cc1c(C(=O)N2CCC(O)(c3cccc(C(F)(F)F)c3)CC2)nn(-c2ccccc2Cl)c1-c1ccc(Cl)cc1` [[1.11], {1-(2-Chloro-phenyl)-5-(4-chloro-phenyl)-3-[4-hydroxy-4-(3-trifluoromethyl-phenyl)-piperidine-1-carbonyl]-1H-pyrazol-4-yl}-acetic acid], for which the IC50 was less than 300 nM.

Turning to `O=C(O)Cc1c(C(=O)N2CCC(CO)(c3ccccc3)CC2)nn(-c2ccccc2Cl)c1-c1ccc(Cl)cc1` [[1.50], [1-(2-Chloro-phenyl)-5-(4-chloro-phenyl)-3-(4-hydroxymethyl-4-phenyl-piperidine-1-carbonyl)-1H-pyrazol-4-yl]-acetic acid], the IC50 is less than 300 nM.
